Data taken from article PMC4931907 (eLife, 2016).

Assays:
[1] = cited from earlier work
Kasumi-1 cells = test: Growth and apoptosis of Kasumi-1 cells (trypan blue, annexin V/7AAD); format: cell-based, human; settings: for Apoptosis, annexin V/7AAD double staining: Kasumi-1, 24 hr
Text: (§1) Previously, we reported that the leukemogenicity of the AML1-ETO fusion protein, generated by a t(8;21) translocation in acute myelogenous leukemia, is regulated by p300-mediated acetylation of lysine 43 of the fusion protein ([Wang et al., 2011]).
(§2) Figure 4. […] (B) Kasumi-1 and AE9a cells treated or not with salicylate were counted by trypan-blue exclusion under light microscopy. […] The percentage of sub-G1 cells is shown. […] Cells were counted by trypan-blue exclusion under light microscopy. […] DOI: http://dx.doi.org/10.7554/eLife.11156.011
(§3) HEK293T cells (ATCC) were maintained in DMEM supplemented with 10% FCS. The viability of Kasumi-1 cells and AE9a mouse leukemia cells was assessed in triplicate by trypan blue exclusion. The Kasumi cell line was isolated and characterized by one of the coauthors (S. Nimer) ([Becker et al., 2008]). All cell lines were tested annually for mycoplasma contamination. Only negative mycoplasma cultures were used during the conduct of these experiments.
(§4) Apoptosis was analyzed with an Annexin V-APC/7AAD Apoptosis kit (Becton-Dickinson) according to manufacturer’s instructions. To assess the distribution of nuclear DNA content in the cell-cycle analysis, cells were collected, washed in PBS, fixed overnight in 75% ethanol at –20°C, treated with 1% RNase A for at least 15 min at 37°C, and stained with […] propidium iodide. To monitor CD34 expression, the cells were stained with an allophycocyanin-conjugated anti-CD34 antibody (Becton Dickinson). To monitor CD11b expression, the cells were stained with a phycoerythrin-conjugated anti-CD11b antibody (Beckman-Coulter). To monitor C-kit and Mac-1 expression, the cells were stained with allophycocyanin-conjugated anti-C-kit and phycoerythrin-conjugated anti-Mac-1 antibodies (Becton-Dickinson). Cells were sorted with a Becton-Dickinson FACSCalibur, and the data were analyzed with FlowJo software.

p300 = biological target: T1, p300 (Homo sapiens, UniProt Q09472); test: p300 inhibition by direct microfluidic mobility shift analysis, H4(3–14) peptide; format: biochemical; settings: microfluidic mobility shift, H4(3–14) peptide, 5 μM acetyl-CoA
T1 construct: in vitro acetylation assays with purified histones and a recombinant p300 catalytic domain; purchased Enzo Life Sciences
T1 sequence (Q09472 1287-1663 limits assumed): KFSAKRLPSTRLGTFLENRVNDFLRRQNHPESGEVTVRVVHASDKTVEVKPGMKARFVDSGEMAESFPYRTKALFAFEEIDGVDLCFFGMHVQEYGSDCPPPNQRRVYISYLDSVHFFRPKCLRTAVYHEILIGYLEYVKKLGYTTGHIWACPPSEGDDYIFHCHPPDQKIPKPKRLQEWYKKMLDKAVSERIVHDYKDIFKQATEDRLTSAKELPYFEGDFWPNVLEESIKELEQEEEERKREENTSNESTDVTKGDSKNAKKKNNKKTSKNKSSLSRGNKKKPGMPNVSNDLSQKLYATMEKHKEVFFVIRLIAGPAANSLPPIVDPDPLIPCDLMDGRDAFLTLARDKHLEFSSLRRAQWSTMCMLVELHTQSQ
Description: Figure 1. Salicylate inhibits CBP/p300 in vitro. (A) Recombinant p300, CBP, GCN5, or PCAF and histones were incubated with ^14C-labeled acetyl-CoA with or without sodium salicylate, separated by SDS-PAGE, analyzed by autoradiography, and quantified with Image J software. Acetylation levels are relative to those in untreated controls. (B) Thermal stability assay for sodium salicylate binding to the p300 HAT domain. Tm, melting temperature. (C) and (D) Lineweaver-Burk plots showing kinetic analysis of p300 acetyltransferase inhibition by sodium salicylate. Histone acetylation was measured with several concentrations of acetyl-CoA (C) or histone (D) in the presence or absence of sodium salicylate. DOI: http://dx.doi.org/10.7554/eLife.11156.003 Figure 1—figure supplement 1. […] (A) Dose-response data for inhibition of p300 by salicylate and salicyl-CoA. Acetylation of an H4(3–14) peptide was monitored using direct microfluidic mobility shift analysis as previously described ([Montgomery et al., 2014]; [Fanslau et al., 2010]). Error is given as the 95% confidence interval. […] Error is given as the 95% confidence interval. DOI: http://dx.doi.org/10.7554/eLife.11156.004 [drawing 1] TEXT PRINTED IN THE PICTURE: (A) Salicylate: p300 IC50 (mM): 6.12; Confidence Interval [CI95] (mM): 5.2–7.2 | (A) Salicyl-CoA: p300 IC50 (mM): […]; Confidence Interval [CI95] […] (mM): 0.78–1.4 | (B) Diflunisal-CoA: p300 IC50 (mM): 0.02; Confidence Interval [CI95] (mM): 0.02–0.03
Salicyl-CoA and diflunisal-CoA were synthesized from their parent carboxylic acids and HPLC purified according to previously reported methods ([Padmakumar et al., 1997]). The purity of each acyl-CoA was confirmed by analytical HPLC prior immediately prior to utilization ([Montgomery et al., 2014]; [Fanslau et al., 2010]). P300 inhibition assays were performed using direct microfluidic mobility shift analysis as previously described. Briefly, p300 reaction mixture (50 mM HEPES, pH 7.5, 50 mM NaCl, 2 mM EDTA, 2 mM DTT, 0.05% Triton-X-100, 50 nM p300, 2 μM FITC-histone H4 peptide) was plated in 384-well plates and allowed to equilibrate at room temperature for 10 min. Reactions were initiated by addition of acetyl-CoA (final concentration = 5 μM), bringing the final assay volume to 30 μL. Assays were quenched after 10 min (<15% product accumulation) by addition of 5 μL of 0.5 M neutral hydroxylamine and transferred to a Perkin-Elmer Lab-Chip EZ-Reader instrument for analysis. Separation conditions were: downstream voltage of −500 V, upstream voltage of −2500 V, and a pressure of −1.5 psi. Percent conversion was calculated by ratiometric measurement of substrate/product peak heights. Percent activity represents the percent conversion of KAT reactions treated with inhibitors relative to untreated control KAT reactions, and corrected for nonenzymatic acetylation. Dose-response analysis of p300 inhibition was performed in triplicate and analyzed by nonlinear least-squares regression fit to Y = 100/(1 + 10∧(Log IC50 – X)*H), where H = Hill slope (variable). IC50 values represent the concentration that inhibits 50% of KAT activity. Calculations were performed using Prism 6 (GraphPad) software.

AML1-ETO fusion protein = test: AML1-ETO K24/K43 acetylation in Kasumi-1 cells (immunoprecipitation, Western blot); format: cell-based, human; settings: Kasumi-1, 24 hr; salicylate 4 or 8 mM, diflunisal 100 or 200 μM
Text: as §1, §2
AML1-ETO protein in the lysate was immunoprecipitated with an anti-ETO antibody (Santa Cruz Biotechnology). Antibodies against AML1 and acetylated AML1-ETO K24/K43 (generated in the Nimer lab) were used for Western blotting.

[2] = system: AE9a-driven AML cell line; test: Growth and apoptosis of AE9a cells (trypan blue, annexin V/7AAD); format: cell-based, mouse; settings: for Apoptosis, annexin V/7AAD double staining: 24 hr
Text: as §1, §2, §3, §4

O=C(O)c1ccccc1O [salicylate, salicylic acid]
Plasma concentrations of salicylate ([1]; humans after oral administration, ref Goldfine et al., 2010, 2013): 1000 to 3000 µM | Salicylate plasma concentrations in patients ([1]; patients taking salicylic acid 3–4 g/day, no reference given): 1 to 3 mM | Apoptosis, annexin V/7AAD double staining (Kasumi-1 cells): increased apoptosis | Concentration inhibiting cell proliferation (Kasumi-1 cells; Kasumi-1, trypan-blue exclusion counts): ≥ 1 mM | IC50 (p300): 6.12 mM | K24 and K43 acetylation of AML1-ETO (AML1-ETO fusion protein): decreased in a dose-dependent manner | Apoptosis, annexin V/7AAD double staining [2]: increased apoptosis | Concentration inhibiting cell proliferation ([2]; trypan-blue exclusion counts): ≥ 1 mM

O=C(O)c1cc(-c2ccc(F)cc2F)ccc1O [diflunisal]
Plasma concentrations of diflunisal ([1]; after daily oral administration, ref Nuernberg et al., 1991, Mano et al., 2006): 150 to 350 µM | Apoptosis, annexin V/7AAD double staining (Kasumi-1 cells): increased apoptosis in a dose-dependent manner | Kasumi-1 cell growth (Kasumi-1 cells; trypan-blue exclusion counts): inhibition of growth | IC50 (p300): 1.05 mM | K24 and K43 acetylation of AML1-ETO (AML1-ETO fusion protein): decreased in a dose-dependent manner | Apoptosis, annexin V/7AAD double staining [2]: increased apoptosis in a dose-dependent manner
